Assay results published in the supplement of paper PMC10307832.

Assays:
Assay in all cases: relative viability (nuclei count vs DMSO), 5 days (fraction); higher = more cells survive
[1] = compound: C/C(=N\NC(=S)N1CCC1)/C2=CC=CC=N2 + CS(=O)(=O)CCNCc1ccc(-c2ccc3ncnc(Nc4ccc(OCc5cccc(F)c5)c(Cl)c4)c3c2)o1 [Lapatinib] (partner 2 µM)
Outline: (§1)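 Lung cancer cell lines were seeded in 1536-well plates and dosed by pin tool the next day, with either a single drug or a fixed anchor-drug dose combined with five library-drug doses (not always all listed) spaced in √10 steps. Five days later, one step fixed the cells and stained their nuclei (final 0.05% Triton X-100, 1% formaldehyde, 1 ug/ml Hoechst), and nuclei were counted on 4× images. Relative viability is the nuclei count in treated wells divided by the count in vehicle wells, and each value is the median of duplicate plates.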

[2] = compound: C/C(=N\NC(=S)N1CCC1)/C2=CC=CC=N2 + C[C@@H](Oc1cc(-c2cnn(C3CCNCC3)c2)cnc1N)c1c(Cl)ccc(F)c1Cl [Crizotinib] (partner 1 µM)
Outline: as §1

[3] = compound: C/C(=N\NC(=S)N1CCC1)/C2=CC=CC=N2 + Cc1nc(Nc2ncc(C(=O)Nc3c(C)cccc3Cl)s2)cc(N2CCN(CCO)CC2)n1 [Dasatinib] (partner 0.075 µM)
Outline: as §1

[4] = compound: C/C(=N\NC(=S)N1CCC1)/C2=CC=CC=N2 + Nc1nc2[nH]cc(CCc3ccc(C(=O)N[C@@H](CCC(=O)O)C(=O)O)cc3)c2c(=O)[nH]1 [Pemetrexed] (partner 0.2 µM)
Outline: as §1

Cell Line	relative viability ([1]; first compound 0.05 µM)	relative viability ([1]; first compound 0.1581 µM)	relative viability ([1]; first compound 0.5 µM)	relative viability ([1]; first compound 1.581 µM)	relative viability ([1]; first compound 5 µM)	relative viability ([2]; first compound 0.05 µM)	relative viability ([2]; first compound 0.1581 µM)	relative viability ([2]; first compound 0.5 µM)	relative viability ([2]; first compound 1.581 µM)	relative viability ([2]; first compound 5 µM)	relative viability ([3]; first compound 0.05 µM)	relative viability ([3]; first compound 0.1581 µM)	relative viability ([3]; first compound 0.5 µM)	relative viability ([3]; first compound 1.581 µM)	relative viability ([3]; first compound 5 µM)	relative viability ([4]; first compound 0.05 µM)	relative viability ([4]; first compound 0.1581 µM)	relative viability ([4]; first compound 0.5 µM)	relative viability ([4]; first compound 1.581 µM)	relative viability ([4]; first compound 5 µM)
UMC-11	0.201	0.195	0.165	0.145	0.134	0.181	0.115	0.128	0.101	0.0892	0.231	0.186	0.153	0.138	0.146	0.221	0.169	0.159	0.141	0.138
NCI-H1792	0.371	0.38	0.179	0.193	0.104	0.38	0.453	0.245	0.186	0.108	0.483	0.294	0.256	0.271	0.196	0.126	0.0786	0.0748	0.0765	0.0786
NCI-H1993	0.59	0.634	0.619	0.58	0.543	0.588	0.536	0.571	0.509	0.443	0.433	0.525	0.525	0.434	0.435	0.382	0.487	0.436	0.405	0.375
NCI-H596	0.339	0.293	0.221	0.228	0.299	0.896	0.302	0.242	0.251	0.258	0.234	0.29	0.245	0.224	0.225	0.373	0.302	0.339	0.243	0.292
NCI-H1563	0.626	0.61	0.573	0.598	0.623	0.604	0.557	0.526	0.553	0.527	0.394	0.462	0.408	0.229	0.312	0.525	0.571	0.505	0.41	0.47
HCC-827	0.161	0.168	0.201	0.211	0.19	0.675	0.894	0.307	0.296	0.204	0.292	0.302	0.21	0.241	0.283	0.224	0.225	0.259	0.152	0.171
NCI-H2228	0.144	0.162	0.136	0.0958	0.139	0.169	0.213	0.262	0.141	0.149	0.133	0.121	0.135		0.0925	0.107	0.147	0.116	0.0863	0.121
NCI-H2170	0.24	0.2	0.203	0.192	0.188	1.12	1.09	0.269	0.183	0.162	0.164	0.167	0.145	0.125	0.161	0.235	0.208	0.202	0.155	0.116
EMC-BAC-2	0.113	0.169	0.178	0.173	0.153	0.365	0.336	0.16	0.153	0.142	0.149	0.169	0.175	0.129	0.186	0.26	0.255	0.275	0.228	0.259
